Measured values reported in patent publication US12043448B2, “Compositions for containers and other articles and methods of using same” (SWIMC LLC, priority 2012, dated 2024).

System: MCF-7, clone WS8, cells
Assay: MCF-7 cell proliferation assay of estrogenic activity
Type: cell-based, human
Conditions: logarithmic value (base 10) of Relative Proliferative Effect in the MCF-7 assay; table gives 'expected or measured' values
Source text: The MCF-7 assay is a useful test for assessing whether a polyhydric phenol compound is appreciably non-estrogenic. The MCF-7 assay uses MCF-7, clone WS8, cells to measure whether and to what extent a substance induces cell proliferation via estrogen receptor (ER)-mediated pathways. The method is described in “Test Method Nomination: MCF-7 Cell Proliferation Assay of Estrogenic Activity” submitted for validation by CertiChem, Inc. to the National Toxicology Program Interagency Center for the Evaluation of Alternative Toxicological Methods (NICEATM) on Jan. 19, 2006 (available online at http://iccvam.niehs.nih.gov/methods/endocrine/endodocs/SubmDoc.pdf).
A brief summary of the method of the aforementioned MCF-7 assay is provided below. MCF-7, clone WS8, cells are maintained at 37° C. in RMPI (or Roswell Park Memorial Institute medium) containing Phenol Red (e.g., GIBCO Catalog Number 11875119) and supplemented with the indicated additives for routine culture. An aliquot of cells maintained at 37° C. are grown for 2 days in phenol-free media containing 5% charcoal stripped fetal bovine serum in a 25 cm^2 tissue culture flask. Using a robotic dispenser such as an epMotion 5070 unit, MCF-7 cells are then seeded at 400 cells per well in 0.2 ml of hormone-free culture medium in Corning 96-well plates. The cells are adapted for 3 days in the hormone-free culture medium prior to adding the chemical to be assayed for estrogenic activity. The media containing the test chemical is replaced daily for 6 days. At the end of the 7-day exposure to the test chemical, the media is removed, the wells are washed once with 0.2 ml of HBSS (Hanks' Balanced Salt Solution), and then assayed to quantify amounts of DNA per well using a micro-plate modification of the Burton diphenylamine (DPA) assay, which is used to calculate the level of cell proliferation.
RPE is the ratio between the EC50 of the test chemical and the EC50 of the control substance 17-beta estradiol times 100, where EC50 is “effective concentration […]” or half-maximum stimulation concentration for cell proliferation measured as total DNA in the MCF-7 assay.

## Oc1ccccc1Cc1ccccc1O [Structure 11]
  Log RPE: less than −4

## CC(C)(c1cc(Br)c(O)c(Br)c1)c1cc(Br)c(O)c(Br)c1 [Structure 16]
  Log RPE: −3

## CC(C)(C)c1cc(O)c(C(C)(C)C)cc1O [Structure 12]
  Log RPE: less than −4

## CC/C(=C(/CC)c1ccc(O)cc1)c1ccc(O)cc1 [diethylstilbestrol, reference compound]
  Log RPE: about 2

## CC(C)(c1ccc(O)cc1)c1ccc(C(C)(C)c2ccc(O)cc2)cc1 [Structure 10]
  Log RPE: less than −4

## O=S(=O)(c1ccc(O)cc1)c1ccc(O)cc1 [Bisphenol S, reference compound]
  Log RPE: −2

## C[C@]12CC[C@@H]3c4ccc(O)cc4CC[C@H]3[C@@H]1CC[C@@H]2O [17β-estradiol, reference compound]
  Log RPE: 2.00

## CC(C(=O)O)(c1ccc(O)cc1)c1ccc(O)cc1 [Structure 5]
  Log RPE: less than −4

## O=c1c(-c2ccc(O)cc2)coc2cc(O)cc(O)c12 [Genistein, reference compound]
  Log RPE: −2

## Oc1ccc(Cc2ccc(O)cc2)cc1 [Bisphenol F, reference compound]
  Log RPE: −2

## C/C=C(/C(=C/C)c1ccc(O)cc1)c1ccc(O)cc1 [dienestrol, reference compound]
  Log RPE: about 2

## CC(c1ccc(O)cc1)(c1ccc(O)cc1)c1ccc(O)cc1 [Structure 3]
  Log RPE: −3

## CC(c1ccccc1)(c1ccc(O)cc1)c1ccc(O)cc1 [Structure 4]
  Log RPE: −3

## CCCC(c1cc(C(C)(C)C)c(O)cc1C)c1cc(C(C)(C)C)c(O)cc1C [Structure 7]
  Log RPE: less than −4
